According to patent US20180199572A1, “Herbicidal Composition Comprising Cinmethylin and Metolachlor or S-Metolachlor” (BASF Agro B.V., priority 2015, published 2018):

Legend:
Assay in all cases: Greenhouse pre-emergence herbicidal activity
Format in all cases: in vivo
Settings in all cases: 20 DAT
[1] = system: Abutilon theophrasti (ABUTH)
[2] = system: Chenopodium album (CHEAL)
[3] = system: Alopecurus myosuroides (ALOMY)
[4] = system: Polygonum convolvulus (POLCO)
Avena fatua (AVEFA) = system: Avena fatua (AVEFA)
Stellaria media (STEME) = system: Stellaria media (STEME)
Setaria viridis (SETVI) = system: Setaria viridis (SETVI)
[5] = system: Anthemis arvensis (ANTAR)
[6] = system: Lolium multiflorum (LOLMU)
[7] = solo S-metolachlor, use rate 62.5 g ai/ha
[8] = solo S-metolachlor, use rate 125 g ai/ha
[9] = solo S-metolachlor, use rate 250 g ai/ha
[10] = solo herbicide A, use rate 31.25 g ai/ha
[11] = solo herbicide A, use rate 62.5 g ai/ha
[12] = solo herbicide A, use rate 125 g ai/ha

## CCc1cccc(C)c1N(C(=O)CCl)[C@@H](C)COC [S-metolachlor]
[1]; [7]
  herbicidal activity (%): 0%
[1]; [8]
  herbicidal activity (%): 0%
[2]; [7]
  herbicidal activity (%): 0%
[3]; [8]
  herbicidal activity (%): 40%
[3]; [9]
  herbicidal activity (%): 50%
[4]; [9]
  herbicidal activity (%): 25%
[4]; solo S-metolachlor, use rate 500 g ai/ha
  herbicidal activity (%): 20%
Avena fatua (AVEFA); [9]
  herbicidal activity (%): 25%
Stellaria media (STEME); [8]
  herbicidal activity (%): 35%
Stellaria media (STEME); [9]
  herbicidal activity (%): 65%
Setaria viridis (SETVI); [7]
  herbicidal activity (%): 80%
[5]; [7]
  herbicidal activity (%): 0%
[5]; [8]
  herbicidal activity (%): 0%
[5]; [9]
  herbicidal activity (%): 25%
[6]; [9]
  herbicidal activity (%): 60%

## (±)-2-exo-(2-Methylbenzyloxy)-1-methyl-4-isopropyl-7-oxabicyclo[2.2.1]heptane [herbicide A]
[1]; [10]
  herbicidal activity (%): 30%
[1]; [11]
  herbicidal activity (%): 60%
[2]; [10]
  herbicidal activity (%): 40%
[3]; [11]
  herbicidal activity (%): 98%
[3]; [12]
  herbicidal activity (%): 98%
[4]; [12]
  herbicidal activity (%): 0%
[4]; solo herbicide A, use rate 250 g ai/ha
  herbicidal activity (%): 15%
Avena fatua (AVEFA); [12]
  herbicidal activity (%): 25%
Stellaria media (STEME); [11]
  herbicidal activity (%): 30%
Stellaria media (STEME); [12]
  herbicidal activity (%): 40%
Setaria viridis (SETVI); [10]
  herbicidal activity (%): 90%
[5]; [10]
  herbicidal activity (%): 0%
[5]; [11]
  herbicidal activity (%): 0%
[5]; [12]
  herbicidal activity (%): 0%
[6]; [12]
  herbicidal activity (%): 85%
